# Test results: patent publication US11945822B2, “Pyrazolo-triazine and/or pyrazolo-pxrimidine derivatives as selective inhibitor of cyclin dependent kinase” (QURIENT CO., LTD., priority 2018, dated 2024)
# Biological target: T1, CDK1/Cyclin B (Homo sapiens, UniProt P06493)
# T1 construct: purchased Invitrogen PR4768C
# Test: Enzymatic assay for CDK1 (FRET based LANCE Ultra kinase assay)
# Type: biochemical
# Conditions: read-out: CDK1 enzymatic activity (IC50 range)
# How it was run: (§1)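 LANCE Ultra TR-FRET: ULight-MBP peptide (68 nM) with ATP at Km, […], 60 min at 23° C. EDTA plus Eu-anti-phospho-MBP added, another 60 min, then 665/615 nm emission read. Compounds tested as 8-dose 4-fold DMSO dilutions.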
# T1 sequence (P06493 whole entry): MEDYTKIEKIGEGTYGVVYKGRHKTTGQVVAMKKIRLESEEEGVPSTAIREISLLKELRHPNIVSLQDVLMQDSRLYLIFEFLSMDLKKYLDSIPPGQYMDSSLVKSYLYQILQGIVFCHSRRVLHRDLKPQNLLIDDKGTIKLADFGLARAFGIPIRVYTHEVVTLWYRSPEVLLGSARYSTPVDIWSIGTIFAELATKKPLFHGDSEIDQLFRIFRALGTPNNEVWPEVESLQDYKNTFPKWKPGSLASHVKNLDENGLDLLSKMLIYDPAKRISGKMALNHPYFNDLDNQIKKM
# T1 sequence (P14635 whole entry partner): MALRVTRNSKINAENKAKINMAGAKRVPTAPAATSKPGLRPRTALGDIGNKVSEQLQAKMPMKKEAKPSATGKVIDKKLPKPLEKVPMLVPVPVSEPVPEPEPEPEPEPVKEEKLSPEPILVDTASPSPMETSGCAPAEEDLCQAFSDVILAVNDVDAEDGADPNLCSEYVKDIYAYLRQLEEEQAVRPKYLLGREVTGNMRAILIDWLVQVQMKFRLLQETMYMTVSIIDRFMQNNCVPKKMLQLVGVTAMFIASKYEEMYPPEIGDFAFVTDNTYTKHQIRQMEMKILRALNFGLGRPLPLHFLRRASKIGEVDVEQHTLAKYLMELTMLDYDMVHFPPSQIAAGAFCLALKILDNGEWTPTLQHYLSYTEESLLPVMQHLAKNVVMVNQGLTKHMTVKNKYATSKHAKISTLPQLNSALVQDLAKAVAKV
row,IC50,Structure (SMILES)
1,> 1 µM,CC(C)c1cnn2c(NCc3ccccc3-n3cc4cccc(NC(=O)CCCN(C)C)c4n3)nc(N3CCC(N)CC3)nc12 [Compound 126]
2,0.1 to 1 µM,CC(C)c1cnn2c(NCc3ccccc3-c3ccc4[nH]cnc4c3)nc(N3CCC(N)CC3)nc12 [Compound 123]
3,0.1 to 1 µM,CC(C)c1cnn2c(NCc3ccccc3-c3ccc4[nH]c(NC(=O)C5CC5)nc4c3)nc(N3CCC(N)CC3)nc12 [Compound 141]

# Tested on: RPMI-8226
# Test: Cellular RPMI-8226 viability assay (CellTiter-Glo, 72 hours)
# Type: cell-based
# Conditions: Homo sapiens
# Protocol: All cell lines were routinely tested for mycoplasma.
# The effect of the CDK7 inhibitor to inhibit the growth of target cancer cells was evaluated through the 72 hours time period of viability assay. Briefly, the candidate cell line ware plated in 96 well plate at the following density of cells respectively. […] DMSO solvent without compound served as a control and final DMSO concentration less than 0.1%. After 72 hours of incubation at 37° C., 5% CO2 incubator, cells were analyzed for the viability using the CellTiter-Glo Luminescent Cell Viability Assay (Promega, Cat #G7570). All viability assays were performed in duplicate and Luminescence was read using an Envision (Perkin Elmer, USA). Data was analyzed using XLfit software.
row,IC50,Structure (SMILES)
1,< 1 µM,CC(C)c1cnn2c(NCc3ccccc3-n3cc4cccc(NC(=O)CCCN(C)C)c4n3)nc(N3CCC(N)CC3)nc12 [Compound 126]
2,< 1 µM,CC(C)c1cnn2c(NCc3ccccc3-c3ccc4[nH]cnc4c3)nc(N3CCC(N)CC3)nc12 [Compound 123]
3,< 1 µM,CC(C)c1cnn2c(NCc3ccccc3-c3ccc4[nH]c(NC(=O)C5CC5)nc4c3)nc(N3CCC(N)CC3)nc12 [Compound 141]

# Biological target: T2, CDK5/p25 (Homo sapiens, UniProt Q00535)
# T2 construct: purchased Invitrogen PR8543B
# Test: Enzymatic assay for CDK5 (FRET based LANCE Ultra kinase assay)
# Type: biochemical
# Conditions: read-out: CDK5 enzymatic activity (IC50 range)
# How it was run: as §1
# T2 sequence (Q00535 whole entry): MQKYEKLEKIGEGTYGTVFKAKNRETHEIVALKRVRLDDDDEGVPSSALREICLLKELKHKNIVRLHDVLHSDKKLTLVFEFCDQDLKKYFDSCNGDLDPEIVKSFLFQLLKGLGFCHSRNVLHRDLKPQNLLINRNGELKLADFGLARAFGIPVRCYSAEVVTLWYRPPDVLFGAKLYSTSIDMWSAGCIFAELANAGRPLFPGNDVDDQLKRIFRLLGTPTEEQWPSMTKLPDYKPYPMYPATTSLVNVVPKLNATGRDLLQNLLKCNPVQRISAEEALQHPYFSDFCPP
# T2 sequence (Q15078 99-307 partner limits assumed): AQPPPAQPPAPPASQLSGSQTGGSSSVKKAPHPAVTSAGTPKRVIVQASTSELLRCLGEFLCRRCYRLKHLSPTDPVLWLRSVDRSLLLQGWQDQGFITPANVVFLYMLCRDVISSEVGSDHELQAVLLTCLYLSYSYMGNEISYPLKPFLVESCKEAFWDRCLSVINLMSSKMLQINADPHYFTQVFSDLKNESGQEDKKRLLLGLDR
row,IC50,Structure (SMILES)
1,0.1 to 1 µM,CC(C)c1cnn2c(NCc3ccccc3-n3cc4cccc(NC(=O)CCCN(C)C)c4n3)nc(N3CCC(N)CC3)nc12 [Compound 126]
2,< 0.1 µM,CC(C)c1cnn2c(NCc3ccccc3-c3ccc4[nH]cnc4c3)nc(N3CCC(N)CC3)nc12 [Compound 123]
3,< 0.1 µM,CC(C)c1cnn2c(NCc3ccccc3-c3ccc4[nH]c(NC(=O)C5CC5)nc4c3)nc(N3CCC(N)CC3)nc12 [Compound 141]

# Biological target: T3, CDK2/Cyclin A (Homo sapiens, UniProt P24941)
# T3 construct: purchased Invitrogen PV6290
# Test: Enzymatic assay for CDK2 (FRET based LANCE Ultra kinase assay)
# Type: biochemical
# Conditions: read-out: CDK2 enzymatic activity (IC50 range)
# How it was run: as §1
row,IC50,Structure (SMILES)
1,0.1 to 1 µM,CC(C)c1cnn2c(NCc3ccccc3-n3cc4cccc(NC(=O)CCCN(C)C)c4n3)nc(N3CCC(N)CC3)nc12 [Compound 126]
2,0.1 to 1 µM,CC(C)c1cnn2c(NCc3ccccc3-c3ccc4[nH]cnc4c3)nc(N3CCC(N)CC3)nc12 [Compound 123]
3,0.1 to 1 µM,CC(C)c1cnn2c(NCc3ccccc3-c3ccc4[nH]c(NC(=O)C5CC5)nc4c3)nc(N3CCC(N)CC3)nc12 [Compound 141]

# Biological target: T4, CDK7/Cyclin H/MNAT1 (Homo sapiens, UniProt P50613)
# T4 construct: purchased Invitrogen PR6749B
# Test: Enzymatic assay for CDK7 (FRET based LANCE Ultra kinase assay)
# Type: biochemical
# Conditions: CDK7 over CDK1
# How it was run: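 Inhibition was measured at Km ATP by time-resolved FRET between a Eu anti-phospho antibody and a phosphorylated ULight peptide. The enzyme was the purified CDK7/cyclin complex, and data were curve-fitted.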
# T4 sequence (P50613 whole entry): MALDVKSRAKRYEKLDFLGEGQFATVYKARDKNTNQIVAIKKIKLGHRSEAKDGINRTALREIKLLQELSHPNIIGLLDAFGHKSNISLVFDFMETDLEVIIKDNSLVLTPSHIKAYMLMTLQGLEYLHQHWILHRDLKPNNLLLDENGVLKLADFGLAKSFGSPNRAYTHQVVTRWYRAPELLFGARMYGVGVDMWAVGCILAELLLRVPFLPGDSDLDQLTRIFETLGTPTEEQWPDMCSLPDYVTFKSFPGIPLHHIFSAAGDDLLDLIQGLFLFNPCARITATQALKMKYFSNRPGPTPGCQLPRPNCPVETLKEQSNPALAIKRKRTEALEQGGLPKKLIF
# T4 sequence (P51946 whole entry partner): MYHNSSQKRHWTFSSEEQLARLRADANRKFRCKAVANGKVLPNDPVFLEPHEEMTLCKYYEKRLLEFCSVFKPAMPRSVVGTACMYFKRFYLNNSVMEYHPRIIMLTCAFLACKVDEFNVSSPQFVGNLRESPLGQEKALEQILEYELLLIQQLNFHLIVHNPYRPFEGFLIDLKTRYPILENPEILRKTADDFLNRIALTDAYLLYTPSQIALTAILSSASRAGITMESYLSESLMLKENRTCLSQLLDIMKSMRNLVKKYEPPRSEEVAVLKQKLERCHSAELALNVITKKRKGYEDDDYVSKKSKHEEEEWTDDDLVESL
# T4 sequence (P51948 whole entry partner): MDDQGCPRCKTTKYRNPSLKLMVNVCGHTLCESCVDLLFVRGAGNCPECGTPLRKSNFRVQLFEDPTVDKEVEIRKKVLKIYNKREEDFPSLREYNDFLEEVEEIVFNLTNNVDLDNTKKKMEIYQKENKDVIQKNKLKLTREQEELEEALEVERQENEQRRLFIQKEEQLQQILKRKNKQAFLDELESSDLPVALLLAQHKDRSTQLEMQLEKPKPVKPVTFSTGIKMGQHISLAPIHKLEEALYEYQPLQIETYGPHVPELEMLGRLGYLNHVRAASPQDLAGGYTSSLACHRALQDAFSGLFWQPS
row,Structure (SMILES),CDK1/CDK7: Selectivity of CDK7 inhibition over CDK1 inhibition
1,CC(C)c1cnn2c(NCc3ccccc3-n3cc4cccc(NC(=O)CCCN(C)C)c4n3)nc(N3CCC(N)CC3)nc12 [Compound 126],A (A=greater than 200 fold)
2,CC(C)c1cnn2c(NCc3ccccc3-c3ccc4[nH]cnc4c3)nc(N3CCC(N)CC3)nc12 [Compound 123],"B (B=less than 200 fold, but greater than 20 fold)"
3,CC(C)c1cnn2c(NCc3ccccc3-c3ccc4[nH]c(NC(=O)C5CC5)nc4c3)nc(N3CCC(N)CC3)nc12 [Compound 141],"B (B=less than 200 fold, but greater than 20 fold)"

# Same assay, conditions: CDK7 over CDK2
row,Structure (SMILES),CDK2/CDK7: Selectivity of CDK7 inhibition over CDK2 inhibition
1,CC(C)c1cnn2c(NCc3ccccc3-n3cc4cccc(NC(=O)CCCN(C)C)c4n3)nc(N3CCC(N)CC3)nc12 [Compound 126],"B (B=less than 200 fold, but greater than 20 fold)"
2,CC(C)c1cnn2c(NCc3ccccc3-c3ccc4[nH]cnc4c3)nc(N3CCC(N)CC3)nc12 [Compound 123],"B (B=less than 200 fold, but greater than 20 fold)"
3,CC(C)c1cnn2c(NCc3ccccc3-c3ccc4[nH]c(NC(=O)C5CC5)nc4c3)nc(N3CCC(N)CC3)nc12 [Compound 141],"B (B=less than 200 fold, but greater than 20 fold)"

# Same assay, conditions: CDK7 over CDK5
row,CDK5/CDK7: Selectivity of CDK7 inhibition over CDK5 inhibition,Structure (SMILES)
1,C (C=less than 20 fold),CC(C)c1cnn2c(NCc3ccccc3-c3ccc4[nH]cnc4c3)nc(N3CCC(N)CC3)nc12 [Compound 123]
2,C (C=less than 20 fold),CC(C)c1cnn2c(NCc3ccccc3-c3ccc4[nH]c(NC(=O)C5CC5)nc4c3)nc(N3CCC(N)CC3)nc12 [Compound 141]

row,Structure (SMILES),CDK5/CDK7: Selectivity of CDK7 inhibition over CDK5 inhibition
1,CC(C)c1cnn2c(NCc3ccccc3-n3cc4cccc(NC(=O)CCCN(C)C)c4n3)nc(N3CCC(N)CC3)nc12 [Compound 126],"B (B=less than 200 fold, but greater than 20 fold)"

# Same assay, conditions: read-out: CDK7 enzymatic activity (IC50 range)
row,IC50,Structure (SMILES)
1,< 0.1 µM,CC(C)c1cnn2c(NCc3ccccc3-n3cc4cccc(NC(=O)CCCN(C)C)c4n3)nc(N3CCC(N)CC3)nc12 [Compound 126]
2,< 0.1 µM,CC(C)c1cnn2c(NCc3ccccc3-c3ccc4[nH]cnc4c3)nc(N3CCC(N)CC3)nc12 [Compound 123]
3,< 0.1 µM,CC(C)c1cnn2c(NCc3ccccc3-c3ccc4[nH]c(NC(=O)C5CC5)nc4c3)nc(N3CCC(N)CC3)nc12 [Compound 141]

# Tested on: MV4-11
# Test: Cellular MV4-11 viability assay (CellTiter-Glo, 72 hours)
# Type: cell-based
# Conditions: Homo sapiens
# How it was run: (§2)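 CellTiter-Glo luminescence read in duplicate after 72 h compound exposure (37 °C, 5% CO2); DMSO-only control, final DMSO under 0.1%.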
row,IC50,Structure (SMILES)
1,< 1 µM,CC(C)c1cnn2c(NCc3ccccc3-c3ccc4[nH]cnc4c3)nc(N3CCC(N)CC3)nc12 [Compound 123]

# Tested on: H460
# Test: Cellular H460 viability assay (CellTiter-Glo, 72 hours)
# Type: cell-based
# Conditions: Homo sapiens, NCI-H460
# How it was run: as §2
row,IC50,Structure (SMILES)
1,< 1 µM,CC(C)c1cnn2c(NCc3ccccc3-n3cc4cccc(NC(=O)CCCN(C)C)c4n3)nc(N3CCC(N)CC3)nc12 [Compound 126]
2,< 1 µM,CC(C)c1cnn2c(NCc3ccccc3-c3ccc4[nH]cnc4c3)nc(N3CCC(N)CC3)nc12 [Compound 123]
3,1 to 10 µM,CC(C)c1cnn2c(NCc3ccccc3-c3ccc4[nH]c(NC(=O)C5CC5)nc4c3)nc(N3CCC(N)CC3)nc12 [Compound 141]
